Measured values from PubChem BioAssay (NCI).
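How tested: cells in 96-well plates exposed to compound for 48 hours at five concentrations. Abbreviation: GI50, concentration required for 50% inhibition of growth. The concentration for full growth arrest is given as TGI.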

How the values were obtained:
Test in all cases: NCI anticancer screen, dose series, 48 h
A549 NSCLC = system: A549 NSCLC
HOP-62 NSCLC = system: HOP-62 NSCLC
SF-295 CNS = system: SF-295 CNS
MDA-MB-435 = system: MDA-MB-435
SK-MEL-28 melanoma = system: SK-MEL-28 melanoma
OVCAR-3 ovarian = system: OVCAR-3 ovarian
UACC-62 melanoma = system: UACC-62 melanoma
OVCAR-8 ovarian = system: OVCAR-8 ovarian
CAKI-1 renal = system: CAKI-1 renal
RXF 393 renal = system: RXF 393 renal

Row | Structure (SMILES) | TGI (A549 NSCLC) [µM] | TGI (HOP-62 NSCLC) [µM] | TGI (SF-295 CNS) [µM] | TGI (MDA-MB-435) [µM] | TGI (SK-MEL-28 melanoma) [µM] | TGI (OVCAR-3 ovarian) [µM] | TGI (UACC-62 melanoma) [µM] | TGI (OVCAR-8 ovarian) [µM] | TGI (CAKI-1 renal) [µM] | TGI (RXF 393 renal) [µM] | GI50 (SF-295 CNS) [µM]
1 | COc1ccc2c(=O)c(O)c(-c3ccc(OC)c(OC)c3)oc2c1 | > 100 | 36.1 | 33.1 | > 100 | > 100 | 11.9 | > 100 | > 100 | 13 |  | 
2 | O=C(Cc1cccs1)N[C@@H]1C(=O)N2C(C(=O)OC(c3ccccc3)c3ccccc3)=C(CO)CS[C@H]12 | > 100 |  | > 100 | > 100 |  | > 100 | > 100 | > 100 | > 100 | > 100 | 
3 | CCOC(=O)N1CCC2(CC1)C[C@](C)(C(C)=O)C(C)O2 (some centres not stated) | > 100 | > 100 | > 100 | > 100 | > 100 | > 100 | > 100 | > 100 | > 100 |  | 
4 | O=C(O)c1cccc2c1/C(=N/Nc1ccccc1)CC2 |  | > 100 | > 100 | > 100 | > 100 | > 100 |  | > 100 | > 100 | > 100 | 
5 | O=C1c2ccccc2C2C1N2C(=O)C(F)(F)F (configuration not stated) | > 100 | > 100 | > 100 |  | > 100 | > 100 | > 100 | > 100 | > 100 | > 100 | 
6 | Cc1ccc(SCC(CSCCO)OCn2cnc3c2NC(N)=NC32OCCO2)cc1 (configuration not stated) | > 100 | > 100 | > 100 | > 100 | > 100 | > 100 |  | > 100 | > 100 | > 100 | 
7 | N.N.N.N.O=[N+]([O-])[O-].[Co+3].[N-]=[N+]=[N-].[N-]=[N+]=[N-] | > 100 | > 100 | > 100 |  | > 100 | > 100 | > 100 | > 100 |  |  | 
8 | CCOc1cc2c(cc1O)/C(=N\OC)C[C@@H]1[C@@H]2CC[C@]2(C)[C@@H](O)CC[C@@H]12 | > 100 | 26.4 | 2.32 |  | > 60.2 | 2.29 | 24 | 3.91 | > 23.4 |  | 0.242
9 | COc1cc([C@@H]2c3cc4c(cc3[C@@H](Nc3ccc([N+](=O)[O-])cc3C(=O)c3ccccc3)[C@H]3COC(=O)[C@H]23)OCO4)cc(OC)c1OC | > 100 | > 100 | > 100 | 0.319 |  | > 100 | > 100 | > 100 | > 100 | > 100 | 
10 | CC(C)CCCCCCCCCCCCC(=O)NCC(=O)NC1C(C)OC(Nc2ncnc3c2ncn3C)C(O)C1O (configuration not stated) | > 100 | > 34.2 | > 100 |  | > 100 | > 100 | > 100 | > 100 | 5.6 | > 25.7 | 
11 | C[C@@]12C[C@@H](c3ccccc3O1)N1CCCCSC1=N2 |  | > 100 | > 100 | > 100 | > 100 | > 100 | > 100 | > 100 | > 100 | > 100 | 
12 | C[C@]12CC[C@H](O)CC1=CC[C@@H]1C2CC[C@]2(C)C(=O)N(N)C(=O)CC12 (some centres not stated) | > 100 | > 100 | > 100 |  | > 100 | > 100 | > 100 | > 100 | > 100 | > 100 | 
13 | CC[C@@]1(O)C(=O)OCc2c1cc1n(c2=O)Cc2c-1nc1ccccc1c2/C=N\NC(=O)CN | > 100 | 3.73 | 6.13 | 41.5 | > 100 | > 91 | 0.842 | > 95.5 |  | 7.66 | 
14 | COc1cc([C@@H]2OCC3C(c4ccc5c(c4)OCO5)OCC32)cc(OC)c1OC (some centres not stated) | > 100 | > 100 | > 100 |  | > 100 | > 100 |  | > 100 | > 100 | > 100 | 
15 | N#CN=C(N(Cc1ccccc1)Cc1ccccc1)N(Cc1ccccc1)Cc1ccccc1 | > 100 | > 100 | > 100 |  |  | 31.7 | > 100 | > 100 | > 100 |  | 
16 | CCC12C=CCN3CCC4(C(=C(C(=O)OC)[C@@H]1O)Nc1ccccc14)C32 (some centres not stated) | 5.15 | 4.12 | 5.7 |  | 4.13 | 3.89 | 4.76 | 5.33 | 7.18 | 2.65 | 
17 | Clc1cc(OC2C3CC4CC(C3)CC2C4)nc(Cl)n1 (configuration not stated) | 95.9 | 67.1 | 37.7 | 37.9 | 29.1 | 35.2 | 24.7 | 61.6 |  | 27.4 | 
18 | CNS(=O)(=O)NNS(=O)(=O)c1ccc2ccccc2c1 | > 100 | > 100 | > 100 |  | > 100 | > 100 | > 100 | > 100 | > 100 |  | 
19 | CCOC(=O)C1=C(C)NC(=S)NC1c1ccccc1 (configuration not stated) | > 100 | > 100 | > 100 |  | > 100 | > 100 | > 100 | > 100 | > 41.2 | > 100 | 
20 | O=C1C(=Cc2ccc(O)cc2)N=C(c2ccccc2)N1n1c(-c2ccccc2)nc2ccccc2c1=O | > 100 | > 100 | > 100 | > 100 | > 100 |  | > 100 | > 100 | > 100 |  | 
21 | c1ccc(N=C2SC3=Nc4cccc5cccc(c45)N3C2=Nc2ccccc2)cc1 |  | > 100 | > 100 | > 100 | > 100 | > 100 | > 100 | > 100 | > 100 | > 100 | 
22 | Clc1ccc(/C=C/c2nc3ccccc3s2)cc1Cl | > 100 | 55.8 | > 100 | > 100 | > 100 | > 100 | > 100 | > 100 | 48.6 |  | 
23 | [N-]=[N+]=Nc1cc(=O)oc2ccccc12 | > 100 | > 100 | > 100 |  | > 100 |  | > 100 | > 100 | > 100 | > 100 | 
